This is an account of results in patent US8853234B2, “Quinolone analogs and methods related thereto” (Senhwa Biosciences, Inc., priority 2007, dated 2014).

SMILES strings stand for the structures. Where two headings read alike, the source gives them in different places.

The test system of experiment [1] is A375 cell xenograft tumors. The experiment can be described thus: A375 cell xenograft tumor inhibition. Particulars: 100 mg/kg oral twice a day, seven days. Type of experiment: in vivo, rodents. The protocol: (§1) Compounds A1, A2 and A3 also were tested for tumor inhibition in xenograft rodents. Rodents having A375 cell xenograft tumors were administered 100 mg/kg, 75 mg/kg and 100 mg/kg doses of Compound A1, A2 and A3, respectively, by oral delivery twice a day. […] Also, rodents having MiaPaCa xenograft tumors were administered 100 mg/kg doses of Compound A1 and A3 by oral delivery twice per day.

The subject of another experiment is MiaPaCa xenograft tumors. Nature of the experiment: MiaPaCa xenograft tumor inhibition. The experiment is classed as in vivo, rodents. Conditions: 100 mg/kg oral twice per day, twenty-two days. As for the experimental part: as §1
The subject of experiment [2] is a variety of cell types that are representative of different cancers. The experiment can be described thus: Alamar Blue cell viability assay, variety of cell types representative of different cancers (Tables 12-14). The experiment is classed as cell-based. Particulars: read-out: IC50. As for the experimental part: A representative cell-proliferation assay protocol using Alamar Blue dye (stored at 4° C., use 20 ul per well) is described hereafter.
96-Well Plate Setup and Compound Treatment
a. Split and trypsinize cells.
b. Count cells using hemocytometer.
c. Plate 4,000-5,000 cells per well in 100 μl of medium and seed into a 96-well plate according to the following plate layout. Add cell culture medium only to wells B10 to B12. Wells B1 to B9 have cells but no compound added.
d. Add 100 μl of 2× drug dilution to each well in a concentration shown in the plate layout above. At the same time, add 100 μl of media into the control wells (wells B10 to B12). Total volume is 200 μl/well.
e. Incubate four (4) days at 37° C., 5% CO2 in a humidified incubator.
f. Add 20 μl Alamar Blue reagent to each well.
g. Incubate for four (4) hours at 37° C., 5% CO2 in a humidified incubator.
h. Record fluorescence at an excitation wavelength of 544 nm and emission wavelength of 590 nm using a microplate reader.
In the assays, cells are cultured with a test compound for approximately four days, the dye then is added to the cells and fluorescence of […] dye is detected after approximately four hours. Different types of cells can be utilized in the assays (e.g., HCT-116 human colorectal carcinoma cells, PC-3 human prostatic cancer cells and MiaPaca human pancreatic carcinoma cells). Anti-proliferative effects of representative compounds are provided hereafter.
Inhibitory activity on cell proliferation of Compounds A1, A2 and A3 was determined using an Alamar Blue cell viability assay (e.g., Example 39 herein) using a variety of cell types that are representative of different cancers Inhibition values (IC50) are presented in micromolar concentrations in the following table (Table 12).
Inhibitory activity on cell proliferation of representative compounds of the invention was determined using an Alamar Blue cell viability assay (e.g., Example 39 herein) using a variety of cell types that are representative of different cancers Inhibition values (IC50) are presented in micromolar concentrations in Table 13 and Table 14.
Background: The colour change of resazurin is a common sign of viable cells or microbes.

Where [3] appears, read: Homo sapiens, A-375, A375, Skin, Epithelial.
Setting [4] is: Homo sapiens, BXPC-3, BXPC3, Pancreas, Epithelial.
The mark [5] stands for this setting: Homo sapiens, HCT-116, HCT-116, Colorectal, Epithelial.
The mark [6] stands for this setting: Homo sapiens, HL60/MX2, HL60/MX2, Hematopoetic, Lymphoma.
Where [7] appears, read: Homo sapiens, HL-60, HL60, Hematopoetic, Lymphoma.
Where [8] appears, read: Homo sapiens, HT-29, HT-29, Colorectal, Epithelial.
Where [9] appears, read: Homo sapiens, Jurkat, Hematopoetic, Lymphoma.
Setting [10] is: Homo sapiens, K562, K562, Hematopoetic, Lymphoblast.
[11] abbreviates: Homo sapiens, LNCaP, Prostate, Fibroblastoid.
The mark [12] stands for this setting: Homo sapiens, MCF7, MCF-7, Breast, Mammary carcinoma.
Setting [13] is: Homo sapiens, MDA-MB-231, MDA-MB-231, Breast, Epithelial.
Where [14] appears, read: Homo sapiens, MIA PaCa-2, Miapaca-2, Pancreas, Epithelial.
The mark [15] stands for this setting: Homo sapiens, NCI-H460, H460, Lung, Epithelial.
[16] abbreviates: Homo sapiens, NCI-H1299, H1299, Lung, NSCL.
Setting [17] is: Homo sapiens, PANC-1, PANC-1, Pancreas, Epithelial.
The mark [18] stands for this setting: Homo sapiens, SAOS-2, Saos-2, Bone, Epithelial.
Where [19] appears, read: Homo sapiens, SK-MES-1, SK-MES-1, Lung, Sqaumous carcinoma.
[20] abbreviates: Homo sapiens, SK-OV-3, SK-OV-3, Ovary, Epithelial.
[21] abbreviates: Homo sapiens, U2OS, Bone, Epithelial.
The mark [22] stands for this setting: Miapaca-R5, Pancreas, Epithelial.

As usually defined, the IC50 is the point on the concentration scale where inhibition reaches its midpoint. As for `Cc1cnc(CNC(=O)c2c(=O)c3ccc(N4CCN(C)CC4)nc3n3c2sc2ccccc23)cn1` [Compound A1], in experiment [1], the “A375 tumor growth inhibition relative to untreated control group” value was “significantly inhibited A375 tumor growth”. For the same compound, the “MiaPaCa tumor growth inhibition relative to untreated control group” value with MiaPaCa xenograft tumors is given as “significantly inhibited MiaPaCa tumor growth”. For the same compound, the IC50 in experiment [2] (setting [3]) turned out to be 90 nM; in experiment [2] (setting [4]), 56 nM; in experiment [2] (setting [5]), 97 nM; in experiment [2] (setting [6]), 244 nM; in experiment [2] (setting [7]), 264 nM; in experiment [2] (setting [8]) it was 73 nM. In addition, the IC50 stood at 69 nM in experiment [2] (setting [9]); 140 nM in experiment [2] (setting [10]); 77 nM in experiment [2] (setting [11]); 348 nM in experiment [2] (setting [12]); 105 nM in experiment [2] (setting [13]); 103 nM in experiment [2] (setting [14]). Besides, the IC50 was found to be 142 nM in experiment [2] (setting [15]); 112 nM in experiment [2] (setting [16]); 148 nM in experiment [2] (setting [17]); 264 nM in experiment [2] (setting [18]); 105 nM in experiment [2] (setting [19]); 215 nM in experiment [2] (setting [20]). The IC50 in experiment [2] (setting [21]) was determined as 752 nM; in experiment [2] (setting [22]), 149 nM; in experiment [2] (PC-3, Prostate, Epithelial) it was 600 nM.
Turning to `O=C(NCCNC1CC1)c1c(=O)c2ccc(N3CCOCC3)nc2n2c1sc1ccccc12` [Compound A3], the “A375 tumor growth inhibition relative to untreated control group” value in experiment [1] is given as “significantly inhibited A375 tumor growth”. For the same compound, the “MiaPaCa tumor growth inhibition relative to untreated control group” value with MiaPaCa xenograft tumors is on record as “significantly inhibited MiaPaCa tumor growth”. Moreover, the IC50 in experiment [2] (setting [3]) is 70 nM; in experiment [2] (setting [4]) it was 71 nM; in experiment [2] (setting [5]), 93 nM; in experiment [2] (setting [6]), 219 nM; in experiment [2] (setting [7]), 160 nM; in experiment [2] (setting [8]), 102 nM. The IC50 in experiment [2] (setting [9]) turned out to be 60 nM; in experiment [2] (setting [10]) it was 120 nM; in experiment [2] (setting [11]), 45 nM; in experiment [2] (setting [12]) it was 267 nM; in experiment [2] (setting [13]), 139 nM; in experiment [2] (setting [14]) it was 122 nM. The IC50 was 123 nM in experiment [2] (setting [15]); 102 nM in experiment [2] (setting [16]); 103 nM in experiment [2] (setting [17]); 249 nM in experiment [2] (setting [18]); 134 nM in experiment [2] (setting [19]); 279 nM in experiment [2] (setting [20]). Also, the IC50 was determined as 476 nM in experiment [2] (setting [21]); 133 nM in experiment [2] (setting [22]); 563 nM in experiment [2] (PC-3, Prostate, Epithelial).
